Columns and labels:
[1] = system: CHEAL (common lambsquarters); assay: Pre-emergence herbicidal activity, warm season; assay type: in vivo, Chenopodium album; settings: GR80 = lowest tested rate (300, 100, 30, 10 g/ha) with 80% or greater inhibition; approx. 14 days after treating; 30/21° C.
Outline: (§1)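 Seeds sown in sterilised fertilised topsoil received surface-applied compound in 50:50 acetone/water, typically at 300, 100, 30 and 10 g/ha, then greenhouse-grown at 30/21° C (warm-season species) or 18/13° C (cool-season species). Percent inhibition versus untreated plants was scored at about 14 days, giving GR80; an asterisk marks activity short of 80% at the top rate.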

ECHCG (barnyardgrass) = assay: Pre-emergence herbicidal activity, warm season; assay type: in vivo, Echinochloa crus-galli; settings: GR80 = lowest tested rate (300, 100, 30, 10 g/ha) with 80% or greater inhibition; approx. 14 days after treating; 30/21° C.
Outline: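 GR80 values derive from percent inhibition relative to untreated plants, read roughly 14 days after sowing and pre-emergence soil-surface treatment (compound in 50:50 acetone/water; rates typically 10, 30, 100, 300 g/ha). Warm-season weeds grew at 30/21° C day/night, cool-season ones at 18/13° C; an asterisk marks activity without reaching 80% at the highest rate.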

SASKR (russian thistle) = assay: Pre-emergence herbicidal activity, cool season; assay type: in vivo, Salsola kali; settings: lowest tested rate with 80% or greater inhibition; rates 300, 100, 30, 10 g/ha; about 14 days
Outline: as §1

STEME (common chickweed) [2] = assay: Pre-emergence herbicidal activity, cool season; assay type: in vivo, Stellaria media; settings: lowest tested rate with 80% or greater inhibition; rates 300, 100, 30, 10 g/ha; about 14 days
Outline: as §1

[3] = system: LAMPU (purple deadnettle); assay: Pre-emergence herbicidal activity, cool season; assay type: in vivo, Lamium purpureum; settings: lowest tested rate with 80% or greater inhibition; rates 300, 100, 30, 10 g/ha; about 14 days
Outline: as §1

[4] = system: PANMI (wild proso millet); assay: Pre-plant incorporated (PPI) herbicidal activity, warm season; assay type: in vivo, Panicum miliaceum
Experimental: (§2) In another set of tests, the pre-plant incorporated (PPI) activity of compounds of this invention was evaluated on the same species as for the pre-emergence tests described above. In the PPI tests the following procedure, designed to simulate PPI application, was used.
(§3) A pre-prepared topsoil mixture (described above) was placed in a pot and compacted to a depth of 1.0 to 1.25 cm from the top of the pot. Seeds of each of several monocotyledonous and dicotyledonous annual plant species were placed on top of the soil. A sufficient quantity of soil to cover the seeds and level fill the pot was weighed into an open container. A known amount of the test compound was dissolved or suspended in an organic solvent and applied by spraying to this cover soil. The cover soil was thoroughly mixed to distribute the test compound throughout the cover soil, and was then applied as a cover layer over the seeds. Untreated soil was used as a cover layer for control pots. After treatment the plants were placed in a greenhouse where they received 0.64 cm of overhead irrigation. All subsequent watering consisted of a light overhead mist and/or subirrigation as needed for germination and growth. Tables 9 and 10 below relate to warm season plant species which were placed after pre-emergence treatment in a greenhouse with a 30/21° C. day/night temperature regime. Tables 11 and 12 below relates to cool season plant species placed after pre-emergence treatment in a greenhouse or growth chamber with an 18/13° C. day/night temperature regime. Only the compounds of Examples 1, 6, 8, 11, 13 and 15-20 were included in PPI tests.
(§4) Approximately 14 days after planting and treating, the plants were observed and herbicidal efficacy recorded as percent inhibition by comparison with untreated plants.

[5] = system: SORHA (johnsongrass (seedling)); assay: as above; assay type: in vivo, Sorghum halepense
Experimental: as §2, §3, §4

SORVU (shattercane) = assay: as above; assay type: in vivo, Sorghum vulgare
Experimental: as §2, §3, §4

STEME (common chickweed) [6] = assay: Pre-plant incorporated (PPI) herbicidal activity, cool season; assay type: in vivo, Stellaria media; settings: for Percent inhibition STEME: weed, PPI application
Experimental: as §2, §3, §4

ALOMY (blackgrass) = assay: as above; assay type: in vivo, Alopecurus myosuroides
Experimental: as §2, §3, §4

corn (ZEAMX) = assay: Selectivity test, PPI, warm season crop; assay type: in vivo, Zea mays; settings: PPI application
Experimental: as §3, §4
Additional pre-emergence and PPI tests were conducted by the procedures described above, on warm and cool season weed species in the presence of crop species, to assess herbicidal selectivity. Crop species included in warm season tests were corn (Zea mays, ZEAMX), rice (Oryza sativa, ORYSA) and soybean (Glycine max, GLYMX). Crop species included in cool season tests were wheat (Triticum aestivum, TRZAW), barley (Hordeunm vulgare, HORVX) and oilseed rape (Brassica napus, BRSNS).
Tables 15 and 16 relate to pre-emergence and PPI tests respectively on warm season species. Table 17 relates to pre-emergence tests on cool season species.

[7] = pre-plant incorporated, lowest tested rate with 80% or greater inhibition, about 14 days

In the case of CCN(CC)C(=O)n1cnc(S(=O)(=O)C(F)(F)SC)n1 [Example 9], the “Pre-emergence activity (GR80) CHEAL” value [1] is reported as 300 g/ha, the “Pre-emergence activity (GR80) ECHCG” value (ECHCG (barnyardgrass)) is reported as 300 g/ha and the “Pre-emergence activity GR80, SASKR” value (SASKR (russian thistle)) is reported as 300 g/ha. The “Pre-emergence activity GR80, STEME” value (STEME (common chickweed) [2]) was 300 g/ha, the “Pre-emergence activity GR80, LAMPU” value [3] was 300 g/ha and the “Percent inhibition PANMI” value ([4]; PPI application, 30 g/ha) was 60%. For the same compound, the “Percent inhibition PANMI” value ([4]; PPI application, 100 g/ha) was 80%, the “Percent inhibition PANMI” value ([4]; PPI application, 300 g/ha) was 100% and the “Percent inhibition PANMI” value ([4]; PPI application, 900 g/ha) was 100%. The “Percent inhibition SORHA” value ([5]; PPI application, 30 g/ha) was 100%, the “Percent inhibition SORHA” value ([5]; PPI application, 100 g/ha) was 100% and the “Percent inhibition SORHA” value ([5]; PPI application, 300 g/ha) was 100%. For the same compound, the “Percent inhibition SORHA” value ([5]; PPI application, 900 g/ha) was 100%, the “Percent inhibition SORVU” value (SORVU (shattercane); PPI application, 30 g/ha) was 60% and the “Percent inhibition SORVU” value (SORVU (shattercane); PPI application, 100 g/ha) was 70%. For the same compound, the “Percent inhibition SORVU” value (SORVU (shattercane); PPI application, 300 g/ha) was 100%, the “Percent inhibition SORVU” value (SORVU (shattercane); PPI application, 900 g/ha) was 100% and the “Percent inhibition STEME” value (STEME (common chickweed) [6]; 30 g/ha) was 70%. The “Percent inhibition STEME” value (STEME (common chickweed) [6]; 100 g/ha) was 95%, the “Percent inhibition STEME” value (STEME (common chickweed) [6]; 300 g/ha) was 100% and the “Percent inhibition STEME” value (STEME (common chickweed) [6]; 900 g/ha) was 100%. The “Percent inhibition ALOMY” value (ALOMY (blackgrass); weed, PPI application, 30 g/ha) was 40%, the “Percent inhibition ALOMY” value (ALOMY (blackgrass); weed, PPI application, 100 g/ha) was 95% and the “Percent inhibition ALOMY” value (ALOMY (blackgrass); weed, PPI application, 300 g/ha) was 100%. The “Percent inhibition ALOMY” value (ALOMY (blackgrass); weed, PPI application, 900 g/ha) was 100%, the “Percent inhibition ZEAMX” value (corn (ZEAMX); 30 g/ha) was 0% and the “Percent inhibition ZEAMX” value (corn (ZEAMX); 100 g/ha) was 10%. For the same compound, the “Percent inhibition ZEAMX” value (corn (ZEAMX); 300 g/ha) was 90% and the “Percent inhibition ZEAMX” value (corn (ZEAMX); 900 g/ha) was 99%.

C=C(C)CC(F)(F)S(=O)(=O)c1ncn(C(=O)N(CC)CC)n1 [Example 18] was tested, and the “Pre-emergence activity (GR80) CHEAL” value [1] was 300 g/ha, the “Pre-emergence activity (GR80) ECHCG” value (ECHCG (barnyardgrass)) was 100 g/ha and the “Pre-emergence activity GR80, SASKR” value (SASKR (russian thistle)) was 300 g/ha. The “Pre-emergence activity GR80, STEME” value (STEME (common chickweed) [2]) was 30 g/ha, the “Pre-emergence activity GR80, LAMPU” value [3] was 300 g/ha and the inhibition at 10 g/ha ([4]; Panicum miliaceum, PPI application, 10 g/ha, read-out: Percent inhibition PANMI) was 0%. It also gave an inhibition at 30 g/ha ([4]; Panicum miliaceum, PPI application, 30 g/ha, read-out: Percent inhibition PANMI) of 40%, an inhibition at 100 g/ha ([4]; Panicum miliaceum, PPI application, 100 g/ha, read-out: Percent inhibition PANMI) of 100% and an inhibition at 300 g/ha ([4]; Panicum miliaceum, PPI application, 300 g/ha, read-out: Percent inhibition PANMI) of 100%. For the same compound, the inhibition at 900 g/ha ([4]; Panicum miliaceum, PPI application, 900 g/ha, read-out: Percent inhibition PANMI) was 100%, the “PPI activity GR80, PANMI” value [4, 7] was 100 g/ha and the inhibition at 10 g/ha ([5]; Sorghum halepense, PPI application, 10 g/ha, read-out: Percent inhibition SORHA) was 100%. The inhibition at 30 g/ha ([5]; Sorghum halepense, PPI application, 30 g/ha, read-out: Percent inhibition SORHA) was 100%, the inhibition at 100 g/ha ([5]; Sorghum halepense, PPI application, 100 g/ha, read-out: Percent inhibition SORHA) was 100% and the inhibition at 300 g/ha ([5]; Sorghum halepense, PPI application, 300 g/ha, read-out: Percent inhibition SORHA) was 100%. The inhibition at 900 g/ha ([5]; Sorghum halepense, PPI application, 900 g/ha, read-out: Percent inhibition SORHA) was 100%, the “PPI activity GR80, SORHA” value [5, 7] was 300 g/ha and the inhibition at 10 g/ha (SORVU (shattercane); Sorghum bicolor, PPI application, 10 g/ha, read-out: Percent inhibition SORVU) was 20%. It also gave an inhibition at 30 g/ha (SORVU (shattercane); Sorghum bicolor, PPI application, 30 g/ha, read-out: Percent inhibition SORVU) of 50%, an inhibition at 100 g/ha (SORVU (shattercane); Sorghum bicolor, PPI application, 100 g/ha, read-out: Percent inhibition SORVU) of 50% and an inhibition at 300 g/ha (SORVU (shattercane); Sorghum bicolor, PPI application, 300 g/ha, read-out: Percent inhibition SORVU) of 100%. The inhibition at 900 g/ha (SORVU (shattercane); Sorghum bicolor, PPI application, 900 g/ha, read-out: Percent inhibition SORVU) was 100%, the “PPI activity GR80, SORVU” value (SORVU (shattercane); [7]) was 100 g/ha and the “PPI activity GR80, STEME” value (STEME (common chickweed) [6]; [7]) was 100 g/ha. The inhibition at 10 g/ha (ALOMY (blackgrass); Alopecurus myosuroides, weed, PPI application, 10 g/ha, read-out: Percent inhibition ALOMY) was 60%, the inhibition at 30 g/ha (ALOMY (blackgrass); Alopecurus myosuroides, weed, PPI application, 30 g/ha, read-out: Percent inhibition ALOMY) was 60% and the inhibition at 100 g/ha (ALOMY (blackgrass); Alopecurus myosuroides, weed, PPI application, 100 g/ha, read-out: Percent inhibition ALOMY) was 30%. The inhibition at 300 g/ha (ALOMY (blackgrass); Alopecurus myosuroides, weed, PPI application, 300 g/ha, read-out: Percent inhibition ALOMY) was 80%, the inhibition at 900 g/ha (ALOMY (blackgrass); Alopecurus myosuroides, weed, PPI application, 900 g/ha, read-out: Percent inhibition ALOMY) was 80% and the “PPI activity GR80, ALOMY” value (ALOMY (blackgrass); [7]) was 100 g/ha. It also gave an inhibition at 10 g/ha (corn (ZEAMX); Zea mays, 10 g/ha, read-out: Percent inhibition ZEAMX) of 0%, an inhibition at 30 g/ha (corn (ZEAMX); Zea mays, 30 g/ha, read-out: Percent inhibition ZEAMX) of 0% and an inhibition at 100 g/ha (corn (ZEAMX); Zea mays, 100 g/ha, read-out: Percent inhibition ZEAMX) of 10%. The inhibition at 300 g/ha (corn (ZEAMX); Zea mays, 300 g/ha, read-out: Percent inhibition ZEAMX) was 15% and the inhibition at 900 g/ha (corn (ZEAMX); Zea mays, 900 g/ha, read-out: Percent inhibition ZEAMX) was 20%.
